Measured values taken from patent publication EP0498222A1, “Novel peptides” (SUMITOMO CHEMICAL COMPANY LIMITED, priority 1991, dated 1992).
Positions of bridges follow the written chain, without caps; N, C: chain ends. Residues, ends and D or L forms follow the SMILES beside them.

How the values were obtained:
[1] = system: last instar larvae of Pseudaletia separata; test: Effect on growth (body weight) of last instar larvae after injection; format: in vivo; conditions: 7 picomoles injected on day 0, day 1 and day 2 of last instar; weight checked until day 3; control about 2.5 times day 0 weight on day 3
Procedure: To examine the effect of peptide I-a on the growth of last instar larvae of Pseudaletia separata, last instar larvae of P. separata were injected with 7 picomoles of peptide I-a for consecutive three days (day 0, day 1 and day 2). They were reared on an artificial diet and the weight of each larva was checked until day 3. […] The open circles ( ⃝) indicate the body weights of the last instar larvae injected with 7 picomoles of peptide I-a on day 0, day 1 and day 2 while the closed circles (●) indicate the body weights of last instar larvae injected with Ringer's solution on day 0, day 1 and day 2.

[2] = system: JH esterase; test: JH esterase activity assay of hemolymph from injected larvae, (10-3H)JH I as substrate; format: in vivo, Pseudaletia separata; conditions: predetermined doses injected on day 1 and day 2; hemolymph collected on day 3
Procedure: The purified peptide I-a was diluted with Ringer's solution and injected, at a predetermined dose, into unparasitized last instar larvae of Pseudaletia separata on day 1 and day 2. The larvae were further reared on an artificial diet. On day 3, hemolymph was prepared from the larvae and centrifuged (500 x g, 4°C, 5 minutes). The supernatant thus collected was subjected to JH esterase activity assay. (10-³H)JH I was used as the substrate for activity assay and the JH-metabolizing activity was estimated based on the proportion of JH acid to the total product formed under the action of JH esterase.

[3] = system: unparasitized last instar larvae of Pseudaletia separata; test: Insect development controlling activity (growth stage checked at 24-hour intervals); format: in vivo; conditions: 7 picomoles injected on day 1 and day 2; control Ringer's solution
Procedure: The purified peptide I-a was dissolved with Ringer's solution and injected, at a dose of 7 picomoles, into unparasitized last instar larvae of Pseudaletia separata on day 1 and day 2. Then the growth stage (larva, prepupa, pupa, or dead) of each larva was checked at 24-hour intervals and the number of individuals in each stage was recorded. Control larvae were injected with Ringer's solution alone.

Question: Which results are given for `CSCC[C@@H]1NC(=O)[C@H](Cc2ccc(O)cc2)NC(=O)CNC(=O)[C@H](C)NC(=O)[C@H](C(C)C)NC(=O)[C@@H](NC(=O)CNC(=O)CNC(=O)[C@H](CO)NC(=O)[C@H](Cc2ccccc2)NC(=O)[C@H](CC(N)=O)NC(=O)[C@@H](N)CCC(=O)O)CSSC[C@@H](C(=O)N[C@@H](CCCCN)C(=O)N2CCC[C@H]2C(=O)N[C@H](C(=O)N[C@@H](Cc2ccccc2)C(=O)N[C@@H](Cc2ccc(O)cc2)C(=O)N[C@@H](CCC(N)=O)C(N)=O)[C@@H](C)O)NC(=O)[C@H](CCCNC(=N)N)NC(=O)CNC(=O)[C@H](CC(=O)O)NC(=O)[C@@H]2CCCN2C(=O)[C@H]([C@@H](C)O)NC(=O)[C@H](CCCNC(=N)N)NC1=O` [peptide I-a] (H-ENFSGGCVAGYMRTPDGRCKPTFYQ-NH2; disulfide 7-19)?
Answer: body weight change [1]: only slight increases in body weight; JH esterase activity [2]: repressed the JH esterase activity in a dose dependent manner; prepupal stage came later than in control larvae [3]: 2 days; pupation later than in control larvae [3]: more than 2 days
